In ChEMBL document CHEMBL1201862, “PubChem BioAssay data set” (2004):
The source made the active and inactive calls.

How the values were obtained:
Ion channel NompC = Ion channel NompC (Danio rerio, UniProt Q7T1G6); test: Fluorescence counterscreen assay for TRPML3 agonists: dose response cell-based high-throughput screening assay to identify agonists of the transient receptor potential channel N1 (TRPN1). [Related pubchem assays: 1526, 1424, 1448 ]; format: functional
Mucolipin-3 = molecular target: T1, Mucolipin-3 (Homo sapiens, UniProt Q8TDD5); test: Dose response cell-based high-throughput screening assay for agonists of the transient receptor potential channel ML3 (TRPML3). [Related pubchem assays: 1526, 1424, 1448 ]; format: functional
T1 sequence (Q8TDD5 whole entry): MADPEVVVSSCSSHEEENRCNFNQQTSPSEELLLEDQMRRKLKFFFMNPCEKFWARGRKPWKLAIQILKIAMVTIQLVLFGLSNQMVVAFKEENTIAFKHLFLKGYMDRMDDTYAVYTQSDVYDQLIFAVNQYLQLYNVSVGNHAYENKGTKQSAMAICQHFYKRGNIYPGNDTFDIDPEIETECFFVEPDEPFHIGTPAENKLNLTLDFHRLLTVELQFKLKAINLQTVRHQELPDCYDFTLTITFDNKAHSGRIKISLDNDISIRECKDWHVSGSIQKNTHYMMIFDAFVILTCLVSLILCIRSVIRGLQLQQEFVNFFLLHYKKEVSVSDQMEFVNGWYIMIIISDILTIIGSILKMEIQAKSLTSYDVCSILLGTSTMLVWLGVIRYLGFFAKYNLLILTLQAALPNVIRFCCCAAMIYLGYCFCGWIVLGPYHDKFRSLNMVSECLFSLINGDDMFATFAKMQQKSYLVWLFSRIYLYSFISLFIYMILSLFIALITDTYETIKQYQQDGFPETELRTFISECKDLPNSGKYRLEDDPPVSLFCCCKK

Streptokinase A = molecular target: T2, Streptokinase A (Streptococcus pyogenes serotype M1, UniProt P10520); test: viability-normalized secreted streptokinase activity reduction – plasminogen activation absorbance, OD405, dose response (AID 1914); format: functional, Streptococcus pyogenes M1 GAS;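 further: secreted streptokinase activity via plasminogen activation per viability signal from cell pellet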
T2 sequence (P10520 whole entry): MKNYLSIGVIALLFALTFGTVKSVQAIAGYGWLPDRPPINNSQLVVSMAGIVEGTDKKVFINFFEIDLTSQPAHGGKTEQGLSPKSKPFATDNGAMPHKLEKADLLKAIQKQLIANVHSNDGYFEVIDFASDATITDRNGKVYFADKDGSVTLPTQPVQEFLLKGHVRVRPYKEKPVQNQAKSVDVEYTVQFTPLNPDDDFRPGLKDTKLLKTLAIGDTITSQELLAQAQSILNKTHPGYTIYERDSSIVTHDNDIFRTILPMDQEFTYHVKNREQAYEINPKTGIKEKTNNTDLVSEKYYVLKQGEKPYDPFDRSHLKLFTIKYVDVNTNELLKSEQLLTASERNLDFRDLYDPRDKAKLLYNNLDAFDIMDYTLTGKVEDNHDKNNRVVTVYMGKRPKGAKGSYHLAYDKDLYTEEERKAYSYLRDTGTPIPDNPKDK

[1] = system: Streptococcus sp. 'group A'; test: Streptococcus pyogenes SK(-)GAS viability under kanamycin – luminescence, BacTiterGlo, confirmation, counter-screen for streptokinase expression inhibitor project, dose response (AID 1900); format: functional, organism-based
Streptococcus = test: GAS UMAA2166 growth inhibition – luminescence, BacTiterGlo, counter-screen for streptokinase expression inhibitor project, dose response (AID 1915); format: functional, organism-based;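 further: potency for reduction of bacterial viability or growth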
[2] = molecular target: T3, Neuropeptide Y receptor type 2 (Homo sapiens, UniProt P49146); format: functional, cell-based;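 further: HEK293 cells expressing the receptor and a CNG channel; stimulus was NPY near EC95 followed by isoproterenol to raise cAMP; antagonist potency measured as restoring cAMP signal that NPY suppresses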
T3 sequence (P49146 whole entry): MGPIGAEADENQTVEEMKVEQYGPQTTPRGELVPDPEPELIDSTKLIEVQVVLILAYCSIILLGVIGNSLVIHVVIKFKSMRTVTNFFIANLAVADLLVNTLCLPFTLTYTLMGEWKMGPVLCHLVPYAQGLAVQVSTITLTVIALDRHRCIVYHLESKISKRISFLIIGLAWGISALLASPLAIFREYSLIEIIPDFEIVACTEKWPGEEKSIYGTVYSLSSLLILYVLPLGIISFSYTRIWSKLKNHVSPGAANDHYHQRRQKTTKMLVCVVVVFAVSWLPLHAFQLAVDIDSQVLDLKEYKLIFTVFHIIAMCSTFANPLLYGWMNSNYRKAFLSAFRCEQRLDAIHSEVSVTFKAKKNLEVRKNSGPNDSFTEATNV

[3] = molecular target: T4, Neuropeptide Y receptor type 1 (Homo sapiens, UniProt P25929); format: functional;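 further: HEK293 cells with a CNG channel challenged with NPY then isoproterenol; potency as antagonist that reverses NPY suppression of cAMP signal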
T4 sequence (P25929 whole entry): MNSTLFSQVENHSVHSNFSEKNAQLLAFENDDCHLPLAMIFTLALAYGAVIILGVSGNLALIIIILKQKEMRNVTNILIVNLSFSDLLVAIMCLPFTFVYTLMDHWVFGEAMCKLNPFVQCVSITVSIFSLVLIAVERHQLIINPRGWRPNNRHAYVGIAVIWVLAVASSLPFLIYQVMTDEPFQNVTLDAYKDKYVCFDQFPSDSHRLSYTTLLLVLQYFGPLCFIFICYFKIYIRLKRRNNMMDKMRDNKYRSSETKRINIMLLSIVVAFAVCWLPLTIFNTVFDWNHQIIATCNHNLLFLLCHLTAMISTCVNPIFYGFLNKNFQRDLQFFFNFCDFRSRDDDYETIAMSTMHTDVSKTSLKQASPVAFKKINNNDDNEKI

[4] = molecular target: T5, Heat shock 70 kDa protein 1A (Homo sapiens, UniProt P0DMV8); test: small molecules displacing fluorescent ligand from Hsp70 – biochemical, fluorescence polarization, primary screen (AID 583)
[5] = molecular target: T5, Heat shock 70 kDa protein 1A; test: small-molecule inhibition of Hsp70 – biochemical, TR-FRET (AID 786)
[6] = molecular target: Peroxisome proliferator-activated receptor gamma/Nuclear receptor coactivator 2 (Homo sapiens, UniProt P37231); test: TR-FRET dose response biochemical High Throughput Screening assay for agonists of the steroid receptor coactivator 2 (SRC-2) recruitment by the peroxisome proliferator-activated receptor gamma (PPAR gamma): non-selective agonists. [Related pubchem assays: 1297, 1032 ]; format: functional
[7] = molecular target: T6, Serine/threonine-protein phosphatase (Candida dubliniensis (strain CD36 / CBS 7987 / NCPF 3949 / NRRLY-17841) (Yeast), UniProt B9W6M3); test: blockers of CaCl2-induced CDRE-lacZ signaling – S. cerevisiae, luminescence, secondary, dose response (AID 2388); format: functional, cell-based;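 further: yeast reporter cells carrying a calcineurin-responsive lacZ construct stimulated with calcium chloride; luminescent beta-galactosidase reporter signal in whole cells rather than isolated phosphatase activity; potency for inhibition where a drop in reporter signal means calcineurin blockade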
T6 sequence (B9W6M3 whole entry): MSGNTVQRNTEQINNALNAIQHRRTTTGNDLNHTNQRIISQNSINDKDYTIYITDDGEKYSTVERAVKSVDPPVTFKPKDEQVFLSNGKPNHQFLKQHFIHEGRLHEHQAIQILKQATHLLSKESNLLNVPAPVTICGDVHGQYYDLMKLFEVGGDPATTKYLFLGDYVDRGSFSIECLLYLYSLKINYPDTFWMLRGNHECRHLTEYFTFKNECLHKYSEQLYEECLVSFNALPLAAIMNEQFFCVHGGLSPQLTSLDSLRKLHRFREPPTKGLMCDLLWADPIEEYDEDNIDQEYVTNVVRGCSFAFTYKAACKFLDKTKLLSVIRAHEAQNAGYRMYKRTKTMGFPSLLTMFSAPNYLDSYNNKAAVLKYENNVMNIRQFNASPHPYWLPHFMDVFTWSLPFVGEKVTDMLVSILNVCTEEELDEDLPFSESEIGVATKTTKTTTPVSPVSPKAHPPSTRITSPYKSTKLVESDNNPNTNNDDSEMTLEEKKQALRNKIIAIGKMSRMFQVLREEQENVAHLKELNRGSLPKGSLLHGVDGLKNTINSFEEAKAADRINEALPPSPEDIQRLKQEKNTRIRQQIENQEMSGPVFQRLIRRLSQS

[8] = NIH-3T3 fibroblast cytotoxicity, dose response, cytotoxicity control, cell-based, fluorescence, Alamar Blue, secondary assay (AID 2327); format: functional;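 further: NIH-3T3 mouse fibroblasts cultured with fluconazole at 8 µg/mL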
[9] = molecular target: ATP-dependent molecular chaperone HSP82 (Candida albicans (strain WO-1) (Yeast), UniProt C4YTQ8); test: steroid-induced GRE reporter decrease in yeast – S. cerevisiae, luminescence, Hsp90 inhibitor project, dose response (AID 2400); format: functional, cell-based;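 further: beta-galactosidase luminescence from glucocorticoid response element reporter as proxy for Hsp90 function; inhibitor potency where signal loss means Hsp90 inhibition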
[10] = fluconazole-exposed Candida albicans growth modulators – fluorescence, retest, confirmation (AID 2467); format: functional, cell-based
[11] = molecular target: Peroxisome proliferator-activated receptor gamma/Nuclear receptor coactivator 1 (Homo sapiens, UniProt P37231); test: TR-FRET dose response biochemical High Throughput Screening assay for agonists of the steroid receptor coactivator 1 (SRC-1) recruitment by the peroxisome proliferator-activated receptor gamma (PPAR gamma): non-selective agonists. [Related pubchem assays (depositor defined):AID1300, AID1808, AID504735, AID631]; format: protein assay
fMet-Leu-Phe receptor = molecular target: T7, fMet-Leu-Phe receptor (Homo sapiens, UniProt P21462); test: formyl peptide receptor binders – dose response (AID 519); format: functional
T7 sequence (P21462 whole entry): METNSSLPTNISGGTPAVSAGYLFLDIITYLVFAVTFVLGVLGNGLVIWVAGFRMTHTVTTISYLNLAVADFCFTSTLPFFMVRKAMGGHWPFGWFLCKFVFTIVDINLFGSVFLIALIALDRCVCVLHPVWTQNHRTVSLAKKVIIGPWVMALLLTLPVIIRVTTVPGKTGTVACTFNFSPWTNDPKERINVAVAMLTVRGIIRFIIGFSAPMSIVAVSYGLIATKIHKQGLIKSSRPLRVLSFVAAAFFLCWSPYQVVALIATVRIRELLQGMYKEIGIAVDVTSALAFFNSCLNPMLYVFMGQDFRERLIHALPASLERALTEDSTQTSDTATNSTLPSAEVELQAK

[12] = molecular target: Peroxisome proliferator-activated receptor gamma/Nuclear receptor coactivator 3 (Homo sapiens, UniProt P37231); test: TR-FRET dose response biochemical High Throughput Screening assay for agonists of the steroid receptor coactivator 3 (SRC-3) recruitment by the peroxisome proliferator-activated receptor gamma (PPAR gamma): non-selective agonists. [Related pubchem assays: 1301 (Confirmation screen.), 1048 (Primary screen.)]; format: functional
[13] = molecular target: T8, Long-chain-fatty-acid--AMP ligase FadD28 (Mycobacterium tuberculosis, UniProt P9WQ59); test: Fluorescence polarization aasay to screen for inhibitors that compete for the binding of FadD28 to a bisubstrate Measured in Biochemical System Using Plate Reader - 2147-01_Inhibitor_Dose_CherryPick_Activity.; format: functional, Mycobacterium tuberculosis H37Rv
T8 sequence (P9WQ59 whole entry): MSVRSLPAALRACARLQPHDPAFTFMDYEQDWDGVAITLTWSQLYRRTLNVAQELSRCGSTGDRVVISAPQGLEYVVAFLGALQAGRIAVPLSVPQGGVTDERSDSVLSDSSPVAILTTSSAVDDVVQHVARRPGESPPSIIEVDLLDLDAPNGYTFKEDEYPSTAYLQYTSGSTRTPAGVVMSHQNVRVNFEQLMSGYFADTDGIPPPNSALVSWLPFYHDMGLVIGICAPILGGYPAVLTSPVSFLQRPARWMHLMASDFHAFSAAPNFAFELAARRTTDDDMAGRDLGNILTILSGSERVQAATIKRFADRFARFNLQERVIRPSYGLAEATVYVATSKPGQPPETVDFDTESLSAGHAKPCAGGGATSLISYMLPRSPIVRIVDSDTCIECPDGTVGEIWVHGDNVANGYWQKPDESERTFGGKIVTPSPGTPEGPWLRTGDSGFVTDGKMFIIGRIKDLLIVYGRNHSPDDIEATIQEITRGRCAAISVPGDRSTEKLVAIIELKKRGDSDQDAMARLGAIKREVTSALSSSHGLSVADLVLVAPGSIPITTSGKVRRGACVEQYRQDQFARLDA

NS3 = NS3 (Hepatitis C virus, UniProt A3EZJ3); test: PubChem AID 2173; design: species or system Hepacivirus hominis
[14] = viability loss in THP-1 monocytes – THP-1 cells, cytotoxicity control for Vif-APOBEC3G degradation inhibitor project, dose response (AID 1117359); format: functional; settings: THP-1
Albumin = Albumin (Bos taurus, UniProt P02769); test: Counterscreen for inhibitors of T-cell receptor (TCR)-CD3 interaction: Fluorescence-based biochemical high throughput dose response assay to identify inhibitors of T-cell receptor (TCR)-CD3 interaction using a TAMRA-labeled BSA probe.; format: functional
[15] = molecular target: Neurotensin receptor type 1 (Homo sapiens, UniProt P30989); format: functional;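 further: Image-based confirmatory dose-response assay measuring agonist activity at NTR1; NTR1-expressing U2OS osteosarcoma cells imaged for beta-arrestin GFP spot formation; agonist potency where compounds increase beta-arrestin recruitment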
Large T antigen = Large T antigen (Simian virus 40, UniProt P03070); format: functional, Betapolyomavirus macacae;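 further: Confirmatory-stage PubChem screen for compounds that inhibit SV40 T antigen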
[16] = HEK-293T cell viability reduction – luminescence, B-cell screen hits, cytotoxicity control for BCR NF-kB inhibitor project, dose response (AID 489021); format: functional, cell-based;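 further: HEK-293T cells carrying an NF-kB luciferase reporter; cells exposed to compound for about 14 hours before viability readout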

T5 sequence (P0DMV8 whole entry): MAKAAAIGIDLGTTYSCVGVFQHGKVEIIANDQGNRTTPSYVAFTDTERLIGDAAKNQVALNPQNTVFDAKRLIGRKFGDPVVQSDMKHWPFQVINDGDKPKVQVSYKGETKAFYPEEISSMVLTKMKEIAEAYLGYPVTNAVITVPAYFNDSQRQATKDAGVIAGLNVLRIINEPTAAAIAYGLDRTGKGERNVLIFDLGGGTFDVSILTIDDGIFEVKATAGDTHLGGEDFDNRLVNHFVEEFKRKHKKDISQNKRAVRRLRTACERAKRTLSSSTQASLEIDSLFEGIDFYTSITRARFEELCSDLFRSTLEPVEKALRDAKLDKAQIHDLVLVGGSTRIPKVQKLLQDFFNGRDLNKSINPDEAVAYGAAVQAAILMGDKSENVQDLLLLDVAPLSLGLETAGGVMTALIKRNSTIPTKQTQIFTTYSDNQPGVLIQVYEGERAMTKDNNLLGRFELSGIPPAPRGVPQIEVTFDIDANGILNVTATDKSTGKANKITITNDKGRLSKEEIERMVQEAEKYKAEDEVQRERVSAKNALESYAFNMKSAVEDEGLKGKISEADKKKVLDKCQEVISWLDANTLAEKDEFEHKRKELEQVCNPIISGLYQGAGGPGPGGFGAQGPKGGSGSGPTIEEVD
NS3, sequence (A3EZJ3 whole entry): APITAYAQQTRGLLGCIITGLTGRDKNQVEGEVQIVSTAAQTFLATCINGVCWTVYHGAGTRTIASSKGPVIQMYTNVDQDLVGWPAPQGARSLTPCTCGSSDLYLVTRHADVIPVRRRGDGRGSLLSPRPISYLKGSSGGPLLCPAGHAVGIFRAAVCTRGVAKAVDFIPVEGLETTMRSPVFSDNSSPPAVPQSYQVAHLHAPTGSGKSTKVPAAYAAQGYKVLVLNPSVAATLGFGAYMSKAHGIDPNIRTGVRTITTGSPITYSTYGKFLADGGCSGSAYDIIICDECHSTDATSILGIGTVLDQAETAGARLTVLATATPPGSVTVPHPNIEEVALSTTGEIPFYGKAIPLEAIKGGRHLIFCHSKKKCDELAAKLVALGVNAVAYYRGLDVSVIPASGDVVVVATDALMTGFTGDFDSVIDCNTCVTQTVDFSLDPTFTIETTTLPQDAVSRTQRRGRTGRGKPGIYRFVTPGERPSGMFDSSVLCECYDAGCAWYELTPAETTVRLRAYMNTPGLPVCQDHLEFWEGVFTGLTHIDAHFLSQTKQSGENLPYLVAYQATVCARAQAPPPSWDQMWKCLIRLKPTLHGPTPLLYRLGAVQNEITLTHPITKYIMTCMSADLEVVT
Ion channel NompC, sequence (Q7T1G6 whole entry): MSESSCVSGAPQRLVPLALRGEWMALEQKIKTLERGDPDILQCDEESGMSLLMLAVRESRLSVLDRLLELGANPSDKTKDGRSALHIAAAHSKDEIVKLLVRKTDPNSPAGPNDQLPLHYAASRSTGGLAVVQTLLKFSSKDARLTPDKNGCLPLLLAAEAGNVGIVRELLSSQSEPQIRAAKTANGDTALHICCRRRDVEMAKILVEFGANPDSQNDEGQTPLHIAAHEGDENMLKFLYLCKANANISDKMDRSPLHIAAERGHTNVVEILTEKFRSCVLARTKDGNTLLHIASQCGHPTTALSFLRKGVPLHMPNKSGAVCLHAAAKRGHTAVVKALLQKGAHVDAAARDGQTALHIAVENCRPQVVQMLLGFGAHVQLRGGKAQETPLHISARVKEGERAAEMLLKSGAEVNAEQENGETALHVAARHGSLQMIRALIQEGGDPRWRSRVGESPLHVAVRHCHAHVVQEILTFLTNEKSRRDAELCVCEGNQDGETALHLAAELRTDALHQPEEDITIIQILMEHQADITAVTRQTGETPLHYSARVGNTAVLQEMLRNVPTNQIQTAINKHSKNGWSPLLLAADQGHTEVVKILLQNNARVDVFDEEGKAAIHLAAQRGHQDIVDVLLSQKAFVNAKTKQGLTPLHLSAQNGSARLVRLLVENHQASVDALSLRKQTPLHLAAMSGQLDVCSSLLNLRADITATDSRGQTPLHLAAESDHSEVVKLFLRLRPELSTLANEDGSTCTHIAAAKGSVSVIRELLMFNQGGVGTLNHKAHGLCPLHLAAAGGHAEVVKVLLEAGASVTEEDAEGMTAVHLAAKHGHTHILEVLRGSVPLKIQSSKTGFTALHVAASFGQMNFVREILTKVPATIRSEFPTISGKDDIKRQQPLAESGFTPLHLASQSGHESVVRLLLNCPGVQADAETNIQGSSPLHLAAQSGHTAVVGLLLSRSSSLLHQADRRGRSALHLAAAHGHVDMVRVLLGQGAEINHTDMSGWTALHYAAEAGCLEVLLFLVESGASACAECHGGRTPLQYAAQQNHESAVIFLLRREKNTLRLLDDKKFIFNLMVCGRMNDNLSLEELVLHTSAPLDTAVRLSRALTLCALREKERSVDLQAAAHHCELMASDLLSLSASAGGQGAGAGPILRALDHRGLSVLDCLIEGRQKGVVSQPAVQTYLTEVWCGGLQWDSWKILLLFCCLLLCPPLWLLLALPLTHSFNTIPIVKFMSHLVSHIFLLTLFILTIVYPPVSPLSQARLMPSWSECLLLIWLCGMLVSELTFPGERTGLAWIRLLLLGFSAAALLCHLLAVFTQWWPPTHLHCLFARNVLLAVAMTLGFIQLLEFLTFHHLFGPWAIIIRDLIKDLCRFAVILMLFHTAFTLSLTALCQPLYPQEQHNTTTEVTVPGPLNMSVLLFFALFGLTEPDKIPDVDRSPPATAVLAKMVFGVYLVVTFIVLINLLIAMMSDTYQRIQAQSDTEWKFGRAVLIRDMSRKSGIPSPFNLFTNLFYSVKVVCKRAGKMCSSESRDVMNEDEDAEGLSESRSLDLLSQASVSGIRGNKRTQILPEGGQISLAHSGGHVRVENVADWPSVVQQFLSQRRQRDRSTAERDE
Large T antigen, sequence (P03070 whole entry): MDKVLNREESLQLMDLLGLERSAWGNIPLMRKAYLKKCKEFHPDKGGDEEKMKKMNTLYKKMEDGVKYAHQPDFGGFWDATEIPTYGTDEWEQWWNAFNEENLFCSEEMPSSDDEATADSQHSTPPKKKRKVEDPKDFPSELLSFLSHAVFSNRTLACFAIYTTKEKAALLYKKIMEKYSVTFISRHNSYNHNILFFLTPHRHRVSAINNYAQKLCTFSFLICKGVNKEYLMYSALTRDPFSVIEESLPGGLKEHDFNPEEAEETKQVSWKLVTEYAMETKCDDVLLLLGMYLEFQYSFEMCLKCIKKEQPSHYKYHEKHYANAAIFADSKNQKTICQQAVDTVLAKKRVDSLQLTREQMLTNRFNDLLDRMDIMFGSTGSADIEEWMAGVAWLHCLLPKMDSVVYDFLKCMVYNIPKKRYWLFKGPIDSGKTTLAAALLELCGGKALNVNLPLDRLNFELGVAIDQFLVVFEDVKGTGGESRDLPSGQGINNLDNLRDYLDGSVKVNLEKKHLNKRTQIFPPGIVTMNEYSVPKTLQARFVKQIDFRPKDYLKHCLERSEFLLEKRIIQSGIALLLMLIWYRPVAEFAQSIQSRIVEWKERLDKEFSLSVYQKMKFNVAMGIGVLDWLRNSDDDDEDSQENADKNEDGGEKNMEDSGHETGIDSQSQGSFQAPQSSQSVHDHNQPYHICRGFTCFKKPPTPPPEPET
Neurotensin receptor type 1, sequence (P30989 whole entry): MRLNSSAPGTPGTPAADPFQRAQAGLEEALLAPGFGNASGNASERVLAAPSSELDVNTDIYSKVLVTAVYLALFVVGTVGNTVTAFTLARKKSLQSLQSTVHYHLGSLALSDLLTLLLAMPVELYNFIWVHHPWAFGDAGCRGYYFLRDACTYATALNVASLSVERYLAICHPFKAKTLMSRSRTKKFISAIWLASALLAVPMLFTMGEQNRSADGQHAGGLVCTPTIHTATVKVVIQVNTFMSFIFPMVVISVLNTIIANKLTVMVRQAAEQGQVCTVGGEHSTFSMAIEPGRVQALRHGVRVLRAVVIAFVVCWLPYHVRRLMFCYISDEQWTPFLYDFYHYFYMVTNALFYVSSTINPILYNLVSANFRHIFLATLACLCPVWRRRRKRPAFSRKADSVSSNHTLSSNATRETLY
ATP-dependent molecular chaperone HSP82, sequence (C4YTQ8 whole entry): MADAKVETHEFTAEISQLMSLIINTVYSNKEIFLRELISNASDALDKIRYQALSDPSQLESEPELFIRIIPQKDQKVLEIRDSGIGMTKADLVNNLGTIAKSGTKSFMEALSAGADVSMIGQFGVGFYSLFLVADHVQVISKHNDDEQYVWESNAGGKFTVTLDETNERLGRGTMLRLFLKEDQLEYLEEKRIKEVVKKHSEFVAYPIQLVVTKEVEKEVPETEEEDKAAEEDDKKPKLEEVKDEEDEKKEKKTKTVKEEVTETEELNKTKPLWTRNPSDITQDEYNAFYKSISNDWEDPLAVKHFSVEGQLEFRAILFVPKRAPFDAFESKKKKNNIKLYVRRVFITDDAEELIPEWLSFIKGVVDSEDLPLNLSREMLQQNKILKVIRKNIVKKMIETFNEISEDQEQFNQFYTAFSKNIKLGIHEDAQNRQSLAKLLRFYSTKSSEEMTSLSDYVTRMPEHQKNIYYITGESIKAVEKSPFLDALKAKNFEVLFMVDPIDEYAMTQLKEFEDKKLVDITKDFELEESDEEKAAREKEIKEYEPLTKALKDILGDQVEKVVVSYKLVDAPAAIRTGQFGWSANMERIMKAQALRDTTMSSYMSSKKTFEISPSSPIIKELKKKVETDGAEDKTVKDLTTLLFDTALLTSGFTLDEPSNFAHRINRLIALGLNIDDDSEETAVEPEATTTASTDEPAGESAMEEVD

SMILES: COc1ccccc1C1CN=NC12CCCc1ccccc1C2=O (centres undefined)
- EC50 (Ion channel NompC): > 29.9 µM (not active)
- EC50 (Mucolipin-3): 1.83 µM (active)

SMILES: Cc1cc(C)n(-c2nc(C)nc(NCc3ccccc3)n2)n1
- EC50 (Streptokinase A): > 150 µM (not active)
- EC50 [1]: 42.4 µM (active)
- EC50 (Ion channel NompC): > 29.9 µM (not active)
- EC50 (Mucolipin-3): > 29.9 µM (not active)
- EC50 (Streptococcus): > 150 µM (not active)

SMILES: Cc1nc2ccc(F)cc2cc1C(=O)Nc1ccc(Cl)c(Cl)c1
- IC50 [2]: 8.88 µM (active)
- IC50 [3]: 8.84 µM (active)

SMILES: CCOc1ccccc1N1Cc2cc(C)c(C)cc2C1
- IC50 [4]: > 100 µM (not active)
- IC50 [5]: > 100 µM (not active)

SMILES: COc1ccc(OC)c(C2C(C(=O)c3cc4ccccc4o3)=C(O)C(=O)N2c2cc(C)on2)c1 (centres undefined)
- EC50 [6]: 36 µM (not active)
- EC50 [7]: > 180 µM (inactive)
- EC50 [8]: > 150 µM (inactive)
- EC50 [9]: 21.6 µM (active)
- EC50 [10]: 0.046 µM (active)
- EC50 [11]: > 79.4 µM (inactive)
- Ki (fMet-Leu-Phe receptor): 36.6 µM (inactive)
- EC50 [12]: > 79.4 µM (not active)
- AC50 [13]: > 100 µM (inactive)
- IC50 (NS3): 5.29 µM (active)

SMILES: C=CCOC(=O)C(C#N)c1nc2ccccc2nc1N1CCCC1 (centres undefined)
- IC50 [4]: > 100 µM (not active)
- IC50 [5]: > 100 µM (not active)

SMILES: O=c1cc(-c2ccc(O)cc2)oc2cc(O)c(C3OC(CO)C(O)C(O)C3O)c(O)c12 (centres undefined)
- CC50 [14]: > 40 µM (active)
- IC50 (Albumin): > 94.1 µM (inactive)
- EC50 [15]: 2.71 µM (active)
- IC50 (Large T antigen): 21.4 µM (active)

SMILES: COc1ccc2[nH]c3c(=O)n(CCCC(=O)NC4CCCCC4C)c(=S)[nH]c3c2c1 (centres undefined)
- IC50 (NS3): 45.7 µM (not active)

SMILES: COc1cc(C[C@@H]2C(=O)OC[C@H]2Cc2ccc(OC)c(OC)c2)ccc1O
- IC50 [16]: > 80 µM (inactive)
